# Results from ChEMBL document CHEMBL1142604, “Chamazulene carboxylic acid and matricin: a natural profen and its natural prodrug, identified through similarity to synthetic drug substances” (J Nat Prod, 2006).
# Tests used:
# [1] = AUC (0 to infinity) in human at 500 mg, po; type: ADME, organism-based; design: dose 500 mg, time infinity, route oral; conditions: plasma
# [2] = Elimination constant, beta in human at 500 mg, po; type: ADME, organism-based; conditions: in vivo
# [3] = test system: Mus musculus; experiment: Antiinflammatory activity in mouse assessed as inhibition of phorbol […]-induced ear lobe edema at 1 umol/ear after 48 hrs relative to control; type: functional
# [4] = Lipophilicity, log D at pH 7.4; type: physicochemical; conditions: buffer
# [5] = Plasma concentration in human at 300 mg, po after 5 hrs; type: ADME, organism-based
# [6] = test system: Homo sapiens; experiment: Plasma concentration in human at 500 mg, po after 75 to 90 mins; type: ADME, organism-based; conditions: in vivo
# [7] = Dissociation constant, pKa of the compound; type: physicochemical
# [8] = test system: Homo sapiens; experiment: Absorption coefficient, Ka in human at 500 mg, po; type: ADME, organism-based; conditions: in vivo
# [9] = target: T1, Prostaglandin G/H synthase 1 (Ovis aries) (UniProt P05979); experiment: Inhibition of ram COX1 at 50 uM
# T1 sequence (whole entry): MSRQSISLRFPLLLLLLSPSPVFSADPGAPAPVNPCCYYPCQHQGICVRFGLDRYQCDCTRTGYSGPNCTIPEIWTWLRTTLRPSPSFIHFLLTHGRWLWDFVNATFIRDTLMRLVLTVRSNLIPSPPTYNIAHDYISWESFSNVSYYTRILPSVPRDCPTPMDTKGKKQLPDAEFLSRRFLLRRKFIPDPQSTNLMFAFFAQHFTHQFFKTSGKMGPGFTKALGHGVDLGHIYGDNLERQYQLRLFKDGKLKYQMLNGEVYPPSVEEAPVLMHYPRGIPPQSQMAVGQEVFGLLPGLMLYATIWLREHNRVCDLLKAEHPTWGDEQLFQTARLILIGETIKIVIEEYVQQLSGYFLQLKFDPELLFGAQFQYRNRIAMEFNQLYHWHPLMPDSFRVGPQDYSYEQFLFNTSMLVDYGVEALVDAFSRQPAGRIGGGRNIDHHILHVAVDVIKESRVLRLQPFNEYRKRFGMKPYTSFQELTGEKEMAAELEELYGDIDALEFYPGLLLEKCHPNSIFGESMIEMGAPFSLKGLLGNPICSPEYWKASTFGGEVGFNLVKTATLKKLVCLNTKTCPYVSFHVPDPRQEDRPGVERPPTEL
# [10] = test system: Mus musculus; experiment: Antiinflammatory activity in mouse assessed as inhibition of phorbol […]-induced ear lobe edema at 0.1 umol/ear after 24 hrs relative to control; type: functional
# [11] = species: Homo sapiens; experiment: Plasma concentration in human by HPLC assay; type: ADME, organism-based; conditions: in vivo
# [12] = test system: Mus musculus; experiment: Antiinflammatory activity in mouse assessed as inhibition of phorbol […]-induced ear lobe edema at 1 umol/ear after 24 hrs; type: functional
# [13] = Plasma concentration in human at 300 mg, po after 25 hrs; type: ADME, organism-based
# [14] = Tmax in human at 500 mg, po; type: ADME, organism-based; conditions: in vivo
# [15] = Cmax in human at 500 mg, po; type: ADME, organism-based; design: dose 500 mg, route oral; conditions: in vivo
# [16] = test system: Mus musculus; experiment: Antiinflammatory activity in mouse assessed as inhibition of phorbol […]-induced ear lobe edema at 0.1 umol/ear after 48 hrs relative to control; type: functional
# [17] = test system: Mus musculus; experiment: Antiinflammatory activity in mouse assessed as inhibition of phorbol […]-induced ear lobe edema; type: functional; design: scale not given: the % may be the effect or the level left
# [18] = test system: Homo sapiens; experiment: Volume of distribution in human at 500 mg, po; type: ADME, organism-based; conditions: in vivo
# [19] = Plasma concentration in human at 300 mg, po after 2.5 hrs; type: ADME, organism-based
# [20] = test system: Mus musculus; experiment: Antiinflammatory activity in mouse assessed as inhibition of phorbol […]-induced ear lobe edema at 0.1 umol/ear after 6 hrs relative to control; type: functional
# [21] = Reduction in prostaglandin metabolite level in human urine at 500 mg, po; type: ADME; design: scale not given: the % may be the effect or the level left; conditions: in vivo
# [22] = test system: Mus musculus; experiment: Antiinflammatory activity in mouse assessed as inhibition of phorbol […]-induced ear lobe edema at 1 umol/ear after 6 hrs relative to control; type: functional
# [23] = Elimination half life in human at 500 mg, po; type: ADME, organism-based; conditions: in vivo, read-out: beta t1/2 (converted)
# [24] = test system: Rattus norvegicus; experiment: Antiinflammatory activity in rat assessed as inhibition of carrageenan-induced right paw edema at 300 mg/kg after 1 hr; type: functional
# [25] = test system: Rattus norvegicus; experiment: Antiinflammatory activity in rat assessed as inhibition of carrageenan-induced right paw edema at 600 mg/kg after 3 hrs; type: functional
# [26] = test system: Rattus norvegicus; experiment: Antiinflammatory activity in rat assessed as inhibition of carrageenan-induced right paw edema at 600 mg/kg after 1 hr; type: functional
# [27] = Metabolic stability in artificial gastric fluid assessed as transformation to chamazulene carboxylic acid after 60 mins; type: physicochemical; conditions: simulated gi fluid, 1 h
structure (smiles),measurement,setting,value
Cc1ccc([C@H](C)C(=O)O)cc2c(C)ccc1-2 [CHAMAZULENE CARBOXYLIC ACID],AUC(0-inf),[1],14700 ng·h/mL
same,k el,[2],4.72e-05 s⁻¹
same,inhibition (INH),[3],24%
same,logD,[4],0.79
same,concentration at 5 h,[5],2400 ng/mL
same,Cp,[6],900 ng/mL
same,pKa,[7],4.14
same,Ka,[8],0.53 h⁻¹
same,inhibition,[9],17.4%
same,inhibition (INH),[10],19%
same,Cp,[11],100 ng/mL
same,inhibition (INH),[12],14%
same,concentration at 25 h,[13],2900 ng/mL
same,Tmax,[14],1.25 h
same,Cmax,[15],900 ng/mL
same,inhibition (INH),[16],35%
same,Activity,[17],23%
same,Vd,[18],133 L
same,concentration at 2.5 h,[19],1700 ng/mL
same,inhibition (INH),[20],12%
same,Activity,[21],40%
same,inhibition (INH),[22],38%
same,half-life,[23],4 h
same,inhibition in vivo at 300 mg/kg,[24],17.4%
CC(=O)Oc1ccccc1C(=O)O [ASPIRIN],inhibition in vivo at 600 mg/kg,[25],77.3%
same,inhibition in vivo at 600 mg/kg,[26],92.4%
CC(=O)O[C@H]1CC(C)=C2C=C[C@@](C)(O)[C@@H]2[C@H]2OC(=O)[C@@H](C)[C@@H]21 [MATRICIN],Stability,[27],Stable
Cc1ccc([C@H](C)C(=O)OCOC(=O)C(C)(C)C)cc2c(C)ccc1-2,inhibition in vivo at 300 mg/kg,[24],34.8%
CC(C)Cc1ccc([C@H](C)C(=O)O)cc1 [DEXIBUPROFEN],logD,[4],1.07
COc1ccc2cc([C@H](C)C(=O)O)ccc2c1 [NAPROXEN],inhibition (INH),[3],25%
same,inhibition (INH),[10],21%
same,inhibition (INH),[16],18%
same,Activity,[17],59%
same,inhibition (INH),[20],28%
same,inhibition (INH),[22],45%
CC(C(=O)O)c1ccc(-c2ccccc2)c(F)c1 (stereo not drawn) [FLURBIPROFEN],logD,[4],0.85
same,pKa,[7],4.6
COC(=O)[C@@H](C)c1ccc(C)c2ccc(C)c-2c1,inhibition in vivo at 300 mg/kg,[24],22.8%
